Test results: ChEMBL document CHEMBL1127612, “Maleimidoethyl 3-(tri-n-butylstannyl)hippurate: a useful radioiodination reagent for protein radiopharmaceuticals to enhance target selective radioactivity localization” (J Med Chem, 1994)

Key:
Settings in all cases: in vivo
Mus musculus [1] = experiment: Tested for biodistribution of radioactivity after 3h of intravenous injection in mice neck; format: ADME, organism-based
Mus musculus [2] = experiment: Tested for biodistribution of radioactivity after 1 hr of intravenous injection in mice intestine; format: ADME, organism-based
Mus musculus [3] = experiment: Tested for biodistribution of radioactivity after 1 hr of intravenous injection in mice stomach; format: ADME, organism-based
Mus musculus [4] = experiment: Tested for biodistribution of radioactivity after 3h of intravenous injection in mice blood; format: ADME, organism-based
Mus musculus [5] = experiment: Tested for biodistribution of radioactivity after 72 hr of intravenous injection in mice stomach; format: ADME, organism-based
Mus musculus [6] = experiment: Tested for biodistribution of radioactivity after 48 hr of intravenous injection in mice spleen; format: ADME, organism-based
Mus musculus [7] = experiment: Tested for biodistribution of radioactivity after 24 hr of intravenous injection in mice feces; format: ADME, organism-based
Mus musculus [8] = experiment: Tested for biodistribution of radioactivity after 10 min of intravenous injection in mice lung; format: ADME, organism-based
Mus musculus [9] = experiment: Tested for biodistribution of radioactivity after 10 min of intravenous injection in mice kidneys; format: ADME, organism-based
Mus musculus [10] = experiment: Tested for biodistribution of radioactivity after 10 min of intravenous injection in mice liver; format: ADME, organism-based
Mus musculus [11] = experiment: Tested for biodistribution of radioactivity after 3h of intravenous injection in mice intestine; format: ADME, organism-based
Mus musculus [12] = experiment: Tested for biodistribution of radioactivity after 72 hr of intravenous injection in mice blood; format: ADME, organism-based
Mus musculus [13] = experiment: Tested for biodistribution of radioactivity after 48 hr of intravenous injection in mice lung; format: ADME, organism-based
Mus musculus [14] = experiment: Tested for biodistribution of radioactivity after 6 hr of intravenous injection in mice liver; format: ADME, organism-based
Mus musculus [15] = experiment: Tested for biodistribution of radioactivity after 6 hr of intravenous injection in mice stomach; format: ADME, organism-based
Mus musculus [16] = experiment: Tested for biodistribution of radioactivity after 1 hr of intravenous injection in mice blood; format: ADME, organism-based
Mus musculus [17] = experiment: Tested for biodistribution of radioactivity after 72 hr of intravenous injection in mice intestine; format: ADME, organism-based
Mus musculus [18] = experiment: Tested for biodistribution of radioactivity after 10 min of intravenous injection in mice neck; format: ADME, organism-based
Mus musculus [19] = experiment: Tested for biodistribution of radioactivity after 48 hr of intravenous injection in mice intestine; format: ADME, organism-based
Mus musculus [20] = experiment: Tested for biodistribution of radioactivity after 10 min of intravenous injection in mice intestine; format: ADME, organism-based
Mus musculus [21] = experiment: Tested for biodistribution of radioactivity after 1 hr of intravenous injection in mice liver; format: ADME, organism-based
Mus musculus [22] = experiment: Tested for biodistribution of radioactivity after 6 hr of intravenous injection in mice lung; format: ADME, organism-based
Mus musculus [23] = experiment: Tested for biodistribution of radioactivity after 24 hr of intravenous injection in mice liver; format: ADME, organism-based
Mus musculus [24] = experiment: Tested for biodistribution of radioactivity after 1 hr of intravenous injection in mice kidneys; format: ADME, organism-based, Kidney
Mus musculus [25] = experiment: Tested for biodistribution of radioactivity after 1 hr of intravenous injection in mice lung; format: ADME, organism-based
Mus musculus [26] = experiment: Tested for biodistribution of radioactivity after 24 hr of intravenous injection in mice neck; format: ADME, organism-based
Mus musculus [27] = experiment: Tested for biodistribution of radioactivity after 6 hr of intravenous injection in mice intestine; format: ADME, organism-based
Mus musculus [28] = experiment: Tested for biodistribution of radioactivity after 72 hr of intravenous injection in mice spleen; format: ADME, organism-based
Mus musculus [29] = experiment: Tested for biodistribution of radioactivity after 24 hr of intravenous injection in mice blood; format: ADME, organism-based
Mus musculus [30] = experiment: Tested for biodistribution of radioactivity after 10 min of intravenous injection in mice stomach; format: ADME, organism-based
Mus musculus [31] = experiment: Tested for biodistribution of radioactivity after 24 hr of intravenous injection in mice stomach; format: ADME, organism-based
Mus musculus [32] = experiment: Tested for biodistribution of radioactivity after 72 hr of intravenous injection in mice lung; format: ADME, organism-based
Mus musculus [33] = experiment: Tested for biodistribution of radioactivity after 3h of intravenous injection in mice kidneys; format: ADME, organism-based, Kidney
Mus musculus [34] = experiment: Tested for biodistribution of radioactivity after 24 hr of intravenous injection in mice urine; format: ADME, organism-based
Mus musculus [35] = experiment: Tested for biodistribution of radioactivity after 48 hr of intravenous injection in mice blood; format: ADME, organism-based
Mus musculus [36] = experiment: Tested for biodistribution of radioactivity after 24 hr of intravenous injection in mice kidneys; format: ADME, organism-based, Kidney
Mus musculus [37] = experiment: Tested for biodistribution of radioactivity after 1 hr of intravenous injection in mice neck; format: ADME, organism-based
Mus musculus [38] = experiment: Tested for biodistribution of radioactivity after 3h of intravenous injection in mice stomach; format: ADME, organism-based
Mus musculus [39] = experiment: Tested for biodistribution of radioactivity after 48 hr of intravenous injection in mice neck; format: ADME, organism-based
Mus musculus [40] = experiment: Tested for biodistribution of radioactivity after 6 hr of intravenous injection in mice blood; format: ADME, organism-based
Mus musculus [41] = experiment: Tested for biodistribution of radioactivity after 24 hr of intravenous injection in mice lung; format: ADME, organism-based
Mus musculus [42] = experiment: Tested for biodistribution of radioactivity after 6 hr of intravenous injection in mice spleen; format: ADME, organism-based
Mus musculus [43] = experiment: Tested for biodistribution of radioactivity after 3h of intravenous injection in mice spleen; format: ADME, organism-based
Mus musculus [44] = experiment: Tested for biodistribution of radioactivity after 1 hr of intravenous injection in mice spleen; format: ADME, organism-based
Mus musculus [45] = experiment: Tested for biodistribution of radioactivity after 3h of intravenous injection in mice lung; format: ADME, organism-based
Mus musculus [46] = experiment: Tested for biodistribution of radioactivity after 24 hr of intravenous injection in mice intestine; format: ADME, organism-based
Mus musculus [47] = experiment: Tested for biodistribution of radioactivity after 6 hr of intravenous injection in mice kidneys; format: ADME, organism-based, Kidney
Mus musculus [48] = experiment: Tested for biodistribution of radioactivity after 24 hr of intravenous injection in mice spleen; format: ADME, organism-based
Mus musculus [49] = experiment: Tested for biodistribution of radioactivity after 72 hr of intravenous injection in mice liver; format: ADME, organism-based
Mus musculus [50] = experiment: Tested for biodistribution of radioactivity after 6 hr of intravenous injection in mice neck; format: ADME, organism-based
Mus musculus [51] = experiment: Tested for biodistribution of radioactivity after 72 hr of intravenous injection in mice neck; format: ADME, organism-based
Mus musculus [52] = experiment: Tested for biodistribution of radioactivity after 10 min of intravenous injection in mice spleen; format: ADME, organism-based
Mus musculus [53] = experiment: Tested for biodistribution of radioactivity after 3h of intravenous injection in mice liver; format: ADME, organism-based
Mus musculus [54] = experiment: Tested for biodistribution of radioactivity after 48 hr of intravenous injection in mice stomach; format: ADME, organism-based
Mus musculus [55] = experiment: Tested for biodistribution of radioactivity after 72 hr of intravenous injection in mice kidneys; format: ADME, organism-based
Mus musculus [56] = experiment: Tested for biodistribution of radioactivity after 10 min of intravenous injection in mice blood; format: ADME, organism-based
Mus musculus [57] = experiment: Tested for biodistribution of radioactivity after 48 hr of intravenous injection in mice kidneys; format: ADME, organism-based
Mus musculus [58] = experiment: Tested for biodistribution of radioactivity after 48 hr of intravenous injection in mice liver; format: ADME, organism-based

Q: How did the Dose/organ (Mus musculus [1]) turn out when `NCCCCC(N)C(=O)NC(=O)c1cccc(I)c1` (stereo not drawn) was run?
A: 0.72%

Q: What about the Dose/organ (Mus musculus [2]) of the same compound?
A: 2.03%

Q: What about the Dose/organ (Mus musculus [3]) of the same compound?
A: 0.81%

Q: What about the Dose/g (Mus musculus [4]) of the same compound?
A: 26.13%

Q: What about the Dose/organ (Mus musculus [5]) of the same compound?
A: 0.4%

Q: And the Dose/organ (Mus musculus [6])?
A: 2.35%

Q: And the Dose/organ (Mus musculus [7])?
A: 0.55%

Q: What about the Dose/organ (Mus musculus [8]) of the same compound?
A: 11.91%

Q: And the Dose/organ (Mus musculus [9])?
A: 6.31%

Q: What about the Dose/organ (Mus musculus [10]) of the same compound?
A: 15.66%

Q: What about the Dose/organ (Mus musculus [11]) of the same compound?
A: 2.88%

Q: What about the Dose/g (Mus musculus [12]) of the same compound?
A: 11.5%

Q: What about the Dose/organ (Mus musculus [13]) of the same compound?
A: 4.25%

Q: What about the Dose/organ (Mus musculus [14]) of the same compound?
A: 9.83%

Q: What about the Dose/organ (Mus musculus [15]) of the same compound?
A: 1.3%

Q: What about the Dose/g (Mus musculus [16]) of the same compound?
A: 31.31%

Q: What about the Dose/organ (Mus musculus [17]) of the same compound?
A: 0.83%

Q: And the Dose/organ (Mus musculus [18])?
A: 0.66%

Q: What about the Dose/organ (Mus musculus [19]) of the same compound?
A: 0.91%

Q: What about the Dose/organ (Mus musculus [20]) of the same compound?
A: 0.85%

Q: What about the Dose/organ (Mus musculus [21]) of the same compound?
A: 14.38%

Q: And the Dose/organ (Mus musculus [22])?
A: 6.9%

Q: And the Dose/organ (Mus musculus [23])?
A: 4.94%

Q: And the Dose/organ (Mus musculus [24])?
A: 8.15%

Q: And the Dose/organ (Mus musculus [25])?
A: 11.1%

Q: And the Dose/organ (Mus musculus [26])?
A: 0.34%

Q: What about the Dose/organ (Mus musculus [27]) of the same compound?
A: 2.43%

Q: What about the Dose/organ (Mus musculus [28]) of the same compound?
A: 1.83%

Q: And the Dose/g (Mus musculus [29])?
A: 14.39%

Q: What about the Dose/organ (Mus musculus [30]) of the same compound?
A: 0.44%

Q: And the Dose/organ (Mus musculus [31])?
A: 0.49%

Q: And the Dose/organ (Mus musculus [32])?
A: 3.55%

Q: And the Dose/organ (Mus musculus [33])?
A: 7.4%

Q: And the Dose/organ (Mus musculus [34])?
A: 10.09%

Q: And the Dose/g (Mus musculus [35])?
A: 12.64%

Q: What about the Dose/organ (Mus musculus [36]) of the same compound?
A: 4.23%

Q: And the Dose/organ (Mus musculus [37])?
A: 0.83%

Q: And the Dose/organ (Mus musculus [38])?
A: 1.31%

Q: What about the Dose/organ (Mus musculus [39]) of the same compound?
A: 0.34%

Q: What about the Dose/g (Mus musculus [40]) of the same compound?
A: 23.13%

Q: And the Dose/organ (Mus musculus [41])?
A: 5.55%

Q: And the Dose/organ (Mus musculus [42])?
A: 5.48%

Q: What about the Dose/organ (Mus musculus [43]) of the same compound?
A: 5.7%

Q: And the Dose/organ (Mus musculus [44])?
A: 6.38%

Q: And the Dose/organ (Mus musculus [45])?
A: 7.97%

Q: And the Dose/organ (Mus musculus [46])?
A: 1.06%

Q: And the Dose/organ (Mus musculus [47])?
A: 6.57%

Q: What about the Dose/organ (Mus musculus [48]) of the same compound?
A: 3.37%

Q: And the Dose/organ (Mus musculus [49])?
A: 3.34%

Q: And the Dose/organ (Mus musculus [50])?
A: 0.55%

Q: What about the Dose/organ (Mus musculus [51]) of the same compound?
A: 0.25%

Q: And the Dose/organ (Mus musculus [52])?
A: 7.07%

Q: What about the Dose/organ (Mus musculus [53]) of the same compound?
A: 11.17%

Q: And the Dose/organ (Mus musculus [54])?
A: 0.42%

Q: What about the Dose/organ (Mus musculus [55]) of the same compound?
A: 2.73%

Q: What about the Dose/organ (Mus musculus [56]) of the same compound?
A: 38.38%

Q: What about the Dose/organ (Mus musculus [57]) of the same compound?
A: 3.27%

Q: What about the Dose/organ (Mus musculus [58]) of the same compound?
A: 3.84%
